In ChEMBL document CHEMBL3525934 (Drug Metab Dispos, 2013):

Columns and labels:
Type in all cases: ADME
Conditions in all cases: 0.5 h
Cytochrome P450 2C18 = target: T1, Cytochrome P450 2C18 (Homo sapiens, UniProt P33260); test: Drug metabolism in supersomes expressing human recombinant CYP2C18 assessed as enzyme-mediated clozapine-N-oxide metabolite formation at 10 uM after 30 mins measured per nmol of P450 by HPLC analysis
T1 sequence (P33260 whole entry): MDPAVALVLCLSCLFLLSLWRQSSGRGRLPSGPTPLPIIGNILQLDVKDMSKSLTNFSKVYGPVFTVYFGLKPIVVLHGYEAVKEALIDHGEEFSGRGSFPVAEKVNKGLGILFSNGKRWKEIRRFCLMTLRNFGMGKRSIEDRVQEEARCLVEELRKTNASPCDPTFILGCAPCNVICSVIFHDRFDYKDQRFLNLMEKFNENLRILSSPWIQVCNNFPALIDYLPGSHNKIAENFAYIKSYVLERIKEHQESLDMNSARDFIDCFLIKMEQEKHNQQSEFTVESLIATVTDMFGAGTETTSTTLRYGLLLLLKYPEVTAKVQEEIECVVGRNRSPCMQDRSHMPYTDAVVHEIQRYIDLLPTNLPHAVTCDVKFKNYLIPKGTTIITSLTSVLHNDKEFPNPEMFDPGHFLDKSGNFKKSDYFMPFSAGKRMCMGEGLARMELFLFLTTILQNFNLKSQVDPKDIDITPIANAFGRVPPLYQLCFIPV

Cytochrome P450 1A1 [1] = target: T2, Cytochrome P450 1A1 (Homo sapiens, UniProt P04798); test: Drug metabolism in supersomes expressing human recombinant CYP1A1 assessed as enzyme-mediated total GSH conjugate formation at 10 uM after 30 mins measured per nmol of P450 by HPLC analysis in presence of GSH and hGST P1-1
T2 sequence (P04798 whole entry): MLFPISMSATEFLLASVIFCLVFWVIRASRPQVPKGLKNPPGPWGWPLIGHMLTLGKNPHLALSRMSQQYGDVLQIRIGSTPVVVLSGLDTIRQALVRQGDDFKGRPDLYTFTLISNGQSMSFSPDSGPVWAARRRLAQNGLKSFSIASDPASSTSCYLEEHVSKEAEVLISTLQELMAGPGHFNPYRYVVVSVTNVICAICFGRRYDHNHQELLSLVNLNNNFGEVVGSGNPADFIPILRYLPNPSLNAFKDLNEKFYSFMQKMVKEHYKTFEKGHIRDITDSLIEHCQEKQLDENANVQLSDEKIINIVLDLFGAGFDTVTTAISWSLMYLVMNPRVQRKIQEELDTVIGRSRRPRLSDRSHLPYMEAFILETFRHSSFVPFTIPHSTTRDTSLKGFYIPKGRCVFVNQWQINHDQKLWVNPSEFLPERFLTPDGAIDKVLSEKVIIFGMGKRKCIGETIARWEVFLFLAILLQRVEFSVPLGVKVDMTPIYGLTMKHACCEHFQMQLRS

Cytochrome P450 1A1 [2] = target: T2, Cytochrome P450 1A1; test: Drug metabolism in supersomes expressing human recombinant CYP1A1 assessed as enzyme-mediated total GSH conjugate formation at 100 uM after 30 mins measured per nmol of P450 by HPLC analysis in presence of GSH and hGST P1-1

CN1CCN(C2=Nc3cc(Cl)ccc3Nc3ccccc32)CC1 [CLOZAPINE]
Drug metabolism (Cytochrome P450 2C18): 0.025 nmol/min/nmol P450
Drug metabolism (Cytochrome P450 1A1 [1]): 0.3 nmol/min
Drug metabolism (Cytochrome P450 1A1 [2]): 0.32 nmol/min
